Results from ChEMBL document CHEMBL2203210, “SAR and in vivo evaluation of 4-aryl-2-aminoalkylpyrimidines as potent and selective Janus kinase 2 (JAK2) inhibitors” (Bioorg Med Chem Lett, 2012).
Converted amounts (≈) assume the structure as drawn.

Tests used:
[1] = target: T1, Tyrosine-protein kinase JAK2 (Homo sapiens, UniProt O60674)
Description: Inhibition of JAK2 in HEL 92.1.7 cells assessed as inhibition of STAT1 phosphorylation

[2] = target: T2, Tyrosine-protein kinase JAK3 (Homo sapiens, UniProt P52333)
T2 sequence (P52333 whole entry): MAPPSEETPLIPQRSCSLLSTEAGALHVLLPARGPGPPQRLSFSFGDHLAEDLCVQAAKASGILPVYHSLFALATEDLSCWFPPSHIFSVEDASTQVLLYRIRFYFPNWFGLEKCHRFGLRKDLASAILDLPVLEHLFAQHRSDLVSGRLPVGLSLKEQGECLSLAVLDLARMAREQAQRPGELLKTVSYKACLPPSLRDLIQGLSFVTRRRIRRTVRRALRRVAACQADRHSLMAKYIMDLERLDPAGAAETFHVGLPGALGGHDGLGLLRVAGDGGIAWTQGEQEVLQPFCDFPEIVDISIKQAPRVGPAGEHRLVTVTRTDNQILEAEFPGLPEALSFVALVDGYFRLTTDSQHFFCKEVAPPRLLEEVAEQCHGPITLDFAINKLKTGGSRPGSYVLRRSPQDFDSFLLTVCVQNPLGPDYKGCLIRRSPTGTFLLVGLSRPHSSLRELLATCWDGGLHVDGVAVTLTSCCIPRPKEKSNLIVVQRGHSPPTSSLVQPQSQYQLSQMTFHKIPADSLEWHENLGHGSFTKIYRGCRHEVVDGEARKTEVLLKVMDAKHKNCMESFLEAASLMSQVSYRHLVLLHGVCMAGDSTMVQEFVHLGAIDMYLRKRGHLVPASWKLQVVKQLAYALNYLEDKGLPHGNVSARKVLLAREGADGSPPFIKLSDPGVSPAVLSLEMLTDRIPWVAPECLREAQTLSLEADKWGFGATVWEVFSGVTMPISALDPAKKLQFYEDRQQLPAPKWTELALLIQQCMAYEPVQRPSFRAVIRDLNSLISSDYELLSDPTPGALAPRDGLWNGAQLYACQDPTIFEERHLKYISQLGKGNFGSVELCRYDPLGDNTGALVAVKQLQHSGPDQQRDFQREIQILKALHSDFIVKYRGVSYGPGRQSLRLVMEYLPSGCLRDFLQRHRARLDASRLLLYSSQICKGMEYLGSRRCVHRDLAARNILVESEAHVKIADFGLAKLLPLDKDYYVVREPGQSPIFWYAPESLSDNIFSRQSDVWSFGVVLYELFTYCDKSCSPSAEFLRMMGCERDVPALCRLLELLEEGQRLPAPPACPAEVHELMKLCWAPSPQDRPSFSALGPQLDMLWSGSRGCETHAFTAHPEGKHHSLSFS

[3] = target: T1, Tyrosine-protein kinase JAK2; remark: listed apart in the source
[4] = target: T1, Tyrosine-protein kinase JAK2; remark: listed apart in the source
Description: Inhibition of JAK2 in HEL 92.1.7 cells assessed as inhibition of STAT3 phosphorylation

[5] = Kinetic solubility of the compound; assay type: physicochemical; settings: read-out: Kinetic_solubility
[6] = Selectivity ratio of IC50 for JAK3 to IC50 for JAK2

T1 sequence (O60674 whole entry): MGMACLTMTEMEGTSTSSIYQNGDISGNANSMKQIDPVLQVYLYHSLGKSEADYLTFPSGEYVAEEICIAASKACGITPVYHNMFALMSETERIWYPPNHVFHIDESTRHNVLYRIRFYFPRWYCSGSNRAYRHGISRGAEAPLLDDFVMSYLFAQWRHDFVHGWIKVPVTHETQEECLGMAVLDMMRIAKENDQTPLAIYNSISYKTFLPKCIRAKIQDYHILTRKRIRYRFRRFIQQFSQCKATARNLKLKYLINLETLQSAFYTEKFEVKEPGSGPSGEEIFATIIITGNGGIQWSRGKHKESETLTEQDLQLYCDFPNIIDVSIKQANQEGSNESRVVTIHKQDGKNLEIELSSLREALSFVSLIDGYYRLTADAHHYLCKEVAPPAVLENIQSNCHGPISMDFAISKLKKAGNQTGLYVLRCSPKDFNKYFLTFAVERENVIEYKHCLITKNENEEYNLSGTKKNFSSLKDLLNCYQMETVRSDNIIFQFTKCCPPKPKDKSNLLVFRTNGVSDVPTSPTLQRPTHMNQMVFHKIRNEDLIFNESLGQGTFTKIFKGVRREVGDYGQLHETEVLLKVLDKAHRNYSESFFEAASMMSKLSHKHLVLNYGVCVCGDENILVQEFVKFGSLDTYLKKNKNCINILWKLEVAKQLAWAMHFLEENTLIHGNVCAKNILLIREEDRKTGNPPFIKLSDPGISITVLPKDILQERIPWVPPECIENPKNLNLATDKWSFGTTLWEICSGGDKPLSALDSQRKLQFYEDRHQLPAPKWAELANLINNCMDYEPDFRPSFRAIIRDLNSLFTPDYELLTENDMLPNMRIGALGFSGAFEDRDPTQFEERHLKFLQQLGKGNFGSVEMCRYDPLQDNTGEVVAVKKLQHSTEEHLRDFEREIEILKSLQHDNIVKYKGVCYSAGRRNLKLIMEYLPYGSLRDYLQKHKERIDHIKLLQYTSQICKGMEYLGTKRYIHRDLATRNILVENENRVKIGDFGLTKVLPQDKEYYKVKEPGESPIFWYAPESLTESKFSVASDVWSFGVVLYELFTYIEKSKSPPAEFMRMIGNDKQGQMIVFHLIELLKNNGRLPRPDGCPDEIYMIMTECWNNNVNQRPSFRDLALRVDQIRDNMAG

SMILES	IC50 [1]	IC50 [2]	IC50 [3]	IC50 [4]	solubility kinetic [5]	Ratio IC50 [6]
CC(=O)Nc1ccc(-c2ccnc(Nc3cccc(NC(=O)c4ccccc4Cl)c3)n2)cc1	> 30000 nM	> 980 nM	6.9 nM			
CC(=O)Nc1ccc(-c2ccnc(NC3CCCC(NC(=O)c4c(Cl)cccc4Cl)C3)n2)cc1 (configuration not stated)	> 30000 nM	> 980 nM	> 980 nM			
CC(=O)Nc1ccc(-c2ccnc(Nc3cccc(N4CCCCC4)c3)n2)cc1	956 nM	> 980 nM	6.5 nM	1330 nM		
CC(=O)Nc1ccc(-c2ccnc(Nc3cccc(NC(=O)c4ccccc4)c3)n2)cc1		> 980 nM				
CC(=O)Nc1ccc(-c2ccnc(Nc3ccc(N4CCOCC4)cc3)n2)cc1	975 nM	> 980 nM		795 nM		> 250
CC(=O)Nc1ccc(-c2nc(Nc3ccc(N4CCOCC4)cc3)ncc2C(F)(F)F)cc1	2700 nM	> 980 nM	39.6 nM			
CC(=O)Nc1ccc(-c2nc(Nc3ccc(N4CCOCC4)cc3)ncc2F)cc1	6490 nM	> 980 nM	4.4 nM			
CC(=O)Nc1ccc(-c2cc(C)nc(Nc3ccc(N4CCOCC4)cc3)n2)cc1	> 30000 nM	> 980 nM	> 980 nM			
CC(=O)Nc1ccc(-c2ccnc(NCCCNC(=O)c3c(Cl)cccc3Cl)n2)cc1	8140 nM	> 5000 nM	104 nM		6.5 µM (≈ 2.98 µg/mL)	> 50
CC(=O)Nc1ccc(-c2cc(Nc3ccc(N4CCOCC4)cc3)ncn2)cc1	> 30000 nM	> 980 nM	> 980 nM			
CC(=O)Nc1ccc(-c2ccnc(Nc3cccc(NC(=O)c4c(Cl)cccc4Cl)n3)n2)cc1	> 30000 nM	> 980 nM	130 nM			
CC(=O)Nc1ccc(-c2ccnc(Nc3cccc(N4CCOCC4)c3)n2)cc1	615 nM	> 980 nM	4.2 nM	591 nM		
CC(=O)Nc1ccc(-c2ccnc(Nc3cccc(NC(=O)c4c(Cl)cccc4Cl)c3)n2)cc1	763 nM	> 980 nM	12.6 nM	505 nM		
CCN1CCC[C@@H]1C(=O)Nc1ccc(-c2ccnc(Nc3ccc(N4CCOCC4)cc3)n2)cc1	1430 nM		9.1 nM	2170 nM		

Results, then the compound that gave them:

IC50 [1]	IC50 [2]	IC50 [3]	IC50 [4]	solubility kinetic [5]	Ratio IC50 [6]	SMILES
1050 nM	298 nM	8.7 nM	1510 nM			C[C@H](N)C(=O)Nc1ccc(-c2ccnc(Nc3ccc(N4CCOCC4)cc3)n2)cc1
> 30000 nM	368 nM	5.7 nM				O=C(Nc1ccc(-c2ccnc(Nc3ccc(N4CCOCC4)cc3)n2)cc1)[C@H]1CCNC1
1000 nM	1150 nM	12.8 nM	1970 nM	234 µM (≈ 71.2 µg/mL)		CC(=O)Nc1ccc(-c2ccnc(Nc3ccccc3)n2)cc1
328 nM	307 nM	1.7 nM	452 nM			C[C@@H](N)C(=O)Nc1ccc(-c2ccnc(Nc3ccc(N4CCOCC4)cc3)n2)cc1
	105 nM					CC(=O)Nc1ccc(-c2nc(Nc3ccc(N4CCOCC4)cc3)ncc2C)cc1
> 30000 nM	5000 nM	5000 nM				CC(=O)Nc1ccc(-c2ccnc(NCC3CN(C(=O)c4c(Cl)cccc4Cl)C3)n2)cc1
746 nM	484 nM	5.2 nM	1050 nM			CN1CCC[C@@H]1C(=O)Nc1ccc(-c2ccnc(Nc3ccc(N4CCOCC4)cc3)n2)cc1
> 30000 nM	61.7 nM	0.9 nM				O=C1CC[C@H](C(=O)Nc2ccc(-c3ccnc(Nc4ccc(N5CCOCC5)cc4)n3)cc2)N1
622 nM	160 nM	2.7 nM	1390 nM			N[C@H](CO)C(=O)Nc1ccc(-c2ccnc(Nc3ccc(N4CCOCC4)cc3)n2)cc1
